In patent US11883387B2, “PqsR inverse agonists” (HELMHOLTZ-ZENTRUM FÜR INFEKTIONSFORSCHUNG GMBH, priority 2018, dated 2024) one finds IC50, half-life and solubility data, which are given here for 20 compounds.

Some results are limits rather than exact numbers.

One series addresses PqsR (Pseudomonas aeruginosa, UniProt Q9I4X0). As to the kind of experiment: E. coli based β-galactosidase reporter gene assay (PqsR inverse agonistic activity). It counts as cell-based. More on the design: expressed in transfected cells; host or cells: Escherichia coli DH5α. The method, boiled down: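 E. coli DH5α carrying pEAL08-2 (tac-driven pqsR with pqsA-lacZ) was grown to OD600 0.2 and incubated with 0.001–10 μM compound plus 50 nM PQS for 2.5 h at 37 °C. β-Galactosidase activity was measured by ONPG conversion in permeabilized cells and normalized between the no-PQS and solvent controls. IC50 came from concentration variation.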
A general note: In a reporter assay the amount or activity of a reporter protein is the signal.

The nature of series [1]: Metabolic stability in mouse liver microsomes (MLM). In kind it is in vitro ADME. The conditions noted are these: 1 μM compound, 0.5 mg/mL MLM, 1 mM NADPH, 37° C., read-out: half-life (t1/2) towards MLM. On the procedure:
For the evaluation of phase I metabolic stability, the compound (1 μM) was incubated with 0.5 mg/mL MLM (Corning) and 1 mM NADPH at 37° C. for 0, 5, 10, 15 and 30 min. The metabolic stability of Verapamil, Diphenhydramine and Benzydamine (1 μM each) were determined in parallel to confirm the enzymatic activity of the MLM. The incubation was stopped by addition of 2 volumes of acetonitrile containing internal standard (1 μM Leucine Enkephaline). Samples were centrifuged (15 min, 3,500 rpm). Concentration of the remaining test compound at the different time points was analyzed by HPLC-MS/MS and used to determine half-life (t1/2).
Background: Liver microsomes are a subcellular fraction often used to study metabolism.

Series [2] in a line: Kinetic Turbidimetric Aqueous Solubility at room temperature for 5 min. In kind it is physicochemical. Particulars: PBS buffer, kinetic from dmso stock, 2% DMSO. The method in brief:
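Compound diluted in PBS across typically 0.4–200 μM (final DMSO 2%), held 5 min at room temperature. Turbidity read as absorbance at 620 nm against vehicle control. Four-parameter sigmoidal fit of normalized absorbances with AUC calculation gives Log S.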

Series [3] relates to P. aeruginosa pyocyanin production. Put plainly: Pyocyanin assay. Particulars: Pseudomonas aeruginosa, PA14, 16 h, read-out: IC50-value towards pyocyanin production, PA14 in PPGAS medium, 16 h. It counts as cell-based, P. aeruginosa PA14. The method in brief:
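PA14 in PPGAS medium from OD600 0.02 grown 16 h at 37 °C, 200 rpm, with compounds. Pyocyanin extracted with chloroform, back-extracted into 0.2 M HCl, OD520 normalised to OD600.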

Series [4] is described as follows: Metabolic stability against human hepatic S9 fraction. The conditions noted are these: pooled human liver S9 fraction; 1 μM compound, 1 mg/mL pooled human liver S9, phase I and II cofactors, 37° C.; read-out: half-life (t1/2) towards human hepatic S9 fraction. In kind it is in vitro ADME. How it is done:
For the evaluation of combined phase I and phase II metabolic stability, the compound (1 μM) was incubated with 1 mg/mL pooled human liver S9 fraction (BD Gentest), 2 mM NADPH regenerating system, 1 mM UDPGA, 10 mM MgCl2 and 0.1 mM PAPS at 37° C. for 0, 5, 15, 30 and 60 min. The metabolic stability of Testosterone (1 μM) and 7-hydroxycoumarin (1 μM) were determined in parallel to confirm the enzymatic activity of the S9 fraction. The incubation was stopped by precipitation of S9 enzymes with 2 volumes of cold acetonitrile containing internal standard (750 nM Diphenhydramine). Samples were stored on ice for 10 min and precipitated protein was removed by centrifugation (10 min, 4° C., 17,000 g). Concentration of the remaining test compound at the different time points was analyzed by LC-MS/MS (TSQ Quantum Access MAX, Thermo Fisher, Dreieich, Germany) and used to determine half-life (t/2).

Chain of PqsR (Q9I4X0 whole entry): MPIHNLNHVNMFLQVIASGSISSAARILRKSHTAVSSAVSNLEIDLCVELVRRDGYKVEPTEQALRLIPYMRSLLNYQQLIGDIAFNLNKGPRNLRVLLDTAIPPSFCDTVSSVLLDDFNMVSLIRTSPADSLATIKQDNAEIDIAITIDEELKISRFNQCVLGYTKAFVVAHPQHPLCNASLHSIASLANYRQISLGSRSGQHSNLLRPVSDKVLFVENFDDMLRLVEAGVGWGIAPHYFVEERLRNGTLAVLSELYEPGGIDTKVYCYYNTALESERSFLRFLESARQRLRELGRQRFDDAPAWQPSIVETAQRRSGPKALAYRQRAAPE

Usually IC50 stands for the midpoint of a concentration-inhibition curve. One may read the solubility as the dissolved amount per volume that the medium holds. A high value points to a readily soluble substance. Consider `FC(F)(F)c1cc(NCc2cn(-c3ccc(-n4ncc5ccccc54)cc3)nn2)ccn1` [Compound 046, N-((1-(4-(1H-indazol-1-yl)phenyl)-1H-1,2,3-triazol-4-yl)methyl)-2-(trifluoromethyl)pyridin-4-amine], for which the IC50 is 51 to 250 nM on PqsR and 251 to 1000 nM in series [3]. Also, the half-life at 1 μM in series [1] is 0.517 to 1 h. This compound gave a solubility at 5 min in series [2] of over 25 µM.

For the compound `Oc1cc(NCc2cn(-c3ccc(Oc4ccccc4)cc3)nn2)cc(C(F)(F)F)n1` [Compound 050, 4-(((1-(4-Phenoxyphenyl)-1H-1,2,3-triazol-4-yl)methyl)amino)-6-(trifluoromethyl)pyridin-2-ol], the half-maximal inhibitory concentration (IC50) at PqsR is at most 50 nM; in series [3] it was 1000 to 5000 nM. The half-life at 1 μM in series [1] was over 1 h. The compound further returned a solubility at 5 min in series [2] of at least 100 µM.

Take `FC(F)(F)c1cc(SCc2cn(-c3ccc(Oc4ccccc4)cc3)nn2)ccn1` [Compound 054, 4-(((1-(4-phenoxyphenyl)-1H-1,2,3-triazol-4-yl)methyl)thio)-2-(trifluoromethyl)pyridine]: the values for the IC50 (on PqsR; in series [3]) were at most 50 nM and 251 to 1000 nM, respectively. In series [4], the half-life at 1 μM is over 1 h.

`FC(F)(F)c1cc(SCc2cnc(-c3ccc(Oc4ccccc4)cc3)s2)ccn1` [Compound 066, 2-(4-Phenoxyphenyl)-5-(((2-(trifluoromethyl)pyridin-4-yl)thio)methyl)thiazole]: the results for the IC50 (on PqsR; in series [3]) were 51 to 250 nM and 1000 to 5000 nM, respectively. The half-life at 1 μM in series [4] was over 1 h.

Regarding `FC(F)(F)c1cc(NCc2cnc(-c3ccc(Cl)nc3)s2)ccn1` [Compound 073, N-((2-(6-Chloropyridin-3-yl)thiazol-5-yl)methyl)-2-(trifluoromethyl)pyridin-4-amine], the figures for the IC50 (at PqsR; in series [3]) were 51 to 250 nM and 1000 to 5000 nM, respectively. Besides, in series [1], the half-life at 1 μM was over 1 h. In series [2], this compound displayed a solubility at 5 min of at least 100 µM.

Consider `FC(F)(F)c1cc(NCc2csc(-c3ccc(C4CC4)cc3)n2)ccn1` [Compound 081, N-((2-(4-Cyclopropylphenyl)thiazol-4-yl)methyl)-2-(trifluoromethyl)pyridin-4-amine], for which the half-maximal inhibitory concentration (IC50) at PqsR is at most 50 nM; in series [3] it was at most 250 nM. Moreover, in series [4], the half-life at 1 μM is 0.683 to 1 h.

As to `CC(C)Oc1ccc(-c2nc(CNc3ccnc(C(F)(F)F)c3)cs2)cc1Cl` [Compound 082, N-((2-(3-Chloro-4-isopropoxyphenyl)thiazol-4-yl)methyl)-2-(trifluoromethyl)pyridin-4-amine], the IC50 on PqsR is at most 50 nM; in series [3], at most 250 nM. Moreover, in series [4], the half-life at 1 μM is over 1 h.

With `CC(C)Oc1ccc(-c2nc(CNc3ccnc(C(F)(F)F)c3)cs2)cc1` [Compound 087, N-((2-(4-Isopropoxyphenyl)thiazol-4-yl)methyl)-2-(trifluoromethyl)pyridin-4-amine], the IC50 on PqsR is at most 50 nM; in series [3] it was at most 250 nM. Moreover, the half-life at 1 μM in series [4] is over 1 h. In series [2], this compound returned a solubility at 5 min of over 10 µM.

Consider `FC(F)(F)c1cc(NCc2ccc(-c3cnc(Cl)c(Cl)c3)cn2)ccn1` [Compound 102, N-((5′,6′-Dichloro-[3,3′-bipyridin]-6-yl)methyl)-2-(trifluoromethyl)pyridin-4-amine], for which the IC50 at PqsR was in the range of 51 to 250 nM; in series [3], 251 to 1000 nM. For the same compound, the half-life at 1 μM in series [1] was in the range of 0.517 to 1 h. In addition, the solubility at 5 min in series [2] was over 50 µM.

For `FC(F)(F)c1cc(NCc2cnc(-c3ccc(Oc4ccccc4)cc3)nc2)ccn1` [Compound 105, N-((2-(4-Phenoxyphenyl)pyrimidin-5-yl)methyl)-2-(trifluoromethyl)pyridin-4-amine], the IC50 on PqsR was in the range of 51 to 250 nM; in series [3], 251 to 1000 nM. Also, in series [1], the half-life at 1 μM was in the range of 0.517 to 1 h. This compound displayed a solubility at 5 min in series [2] of over 10 µM.

As for `CC(C)Oc1ccc(-c2ncc(CNc3ccnc(C(F)(F)F)c3)cn2)cc1` [Compound 106, N-((2-(4-isopropoxyphenyl)pyrimidin-5-yl)methyl)-2-(trifluoromethyl)pyridin-4-amine], the IC50 on PqsR was 51 to 250 nM; in series [3] it was 251 to 1000 nM. Also, the half-life at 1 μM in series [1] was over 1 h. This compound returned a solubility at 5 min in series [2] of over 25 µM.

With `FC(F)(F)c1cc(SCc2ccc(-c3ccc(Oc4ccccc4)nc3)cn2)ccn1` [Compound 114, 6-Phenoxy-6′-(((2-(trifluoromethyl)pyridin-4-yl)thio)methyl)-3,3′-bipyridine], the IC50 at PqsR fell in the range of 51 to 250 nM. Besides, the half-life at 1 μM in series [4] was over 1 h.

Consider `Nc1cc(SCc2nc3cc(Cl)ccc3[nH]2)nc(C(F)(F)F)n1` [Compound 118, 6-(((5-Chloro-1H-benzo[d]imidazol-2-yl)methyl)thio)-2-(trifluoromethyl)pyrimidin-4-amine], for which the results for the IC50 (on PqsR; in series [3]) were 51 to 250 nM and 1000 to 5000 nM, respectively. Further, the half-life at 1 μM in series [4] was over 1 h.

For the compound `Nc1cc(SCc2nc3cc(Oc4ccccc4)ccc3[nH]2)nc(C(F)(F)F)n1` [Compound 125, 6-(((5-Phenoxy-1H-benzo[d]imidazol-2-yl)methyl)thio)-2-(trifluoromethyl)pyrimidin-4-amine], the IC50 on PqsR was at most 50 nM; in series [3], 251 to 1000 nM. Also, the half-life at 1 μM in series [4] is over 1 h. The same compound registered a solubility at 5 min in series [2] of over 25 µM.

Turning to `FC(F)(F)c1cc(NCc2nc3ccc(Oc4ccccc4)cc3o2)ccn1` [Compound 134, N-((6-Phenoxybenzo[d]oxazol-2-yl)methyl)-2-(trifluoromethyl)pyridin-4-amine], on PqsR, the IC50 lay within 251 to 1000 nM. Further, in series [4], the half-life at 1 μM was over 1 h. In series [2], this compound returned a solubility at 5 min of at least 100 µM.

Turning to `Fc1ccccc1Oc1ccc(-n2cc(CNc3ccnc(C(F)(F)F)c3)nn2)cc1` [Compound 144, N-((1-(4-(2-fluorophenoxy)phenyl)-1H-1,2,3-triazol-4-yl)methyl)-2-(trifluoromethyl)pyridin-4-amine], the concentration for half-maximal inhibition (IC50) on PqsR was at most 50 nM; in series [3], at most 250 nM. For the same compound, in series [1], the half-life at 1 μM is 0.517 to 1 h. For the same compound, in series [2], the solubility at 5 min was over 25 µM.

Regarding `FC(F)(F)c1cc(NCc2cn(-c3ccc(-n4ncc5ccncc54)c(Cl)c3)nn2)ccn1` [Compound 147], the IC50 at PqsR was at most 50 nM; in series [3] it was 251 to 1000 nM. For the same compound, the half-life at 1 μM in series [1] lay in the range of 0.517 to 1 h. In addition, the solubility at 5 min in series [2] was over 50 µM.

Turning to `CC(C)Oc1ccc(-c2ncc(CNc3cc(C#N)nc(C(F)(F)F)c3)s2)cc1Cl` [Compound 160, 4-(((2-(3-Chloro-4-isopropoxyphenyl)thiazol-5-yl)methyl)amino)-6-(trifluoromethyl)picolinonitrile], the IC50 at PqsR was at most 50 nM; in series [3] it was at most 250 nM. Further, in series [1], the half-life at 1 μM fell in the range of 0.517 to 1 h. The compound further yielded a solubility at 5 min in series [2] of over 10 µM.

For the compound `CC(C)Oc1ncc(-c2ncc(CNc3ccnc(C(F)(F)F)c3)cn2)cc1Cl` [Compound 164, N-((2-(5-chloro-6-isopropoxypyridin-3-yl)pyrimidin-5-yl)methyl)-2-(trifluoromethyl)pyridin-4-amine], the IC50 at PqsR was at most 50 nM; in series [3] it was 251 to 1000 nM. In addition, in series [1], the half-life at 1 μM is over 1 h. Further, the solubility at 5 min in series [2] was over 25 µM.

`CC(C)Oc1ccc(-c2ccc(CNc3ccnc(C(F)(F)F)c3)nc2)cc1Cl` [Compound 165, N-((5-(3-chloro-4-isopropoxyphenyl)pyridin-2-yl)methyl)-2-(trifluoromethyl)pyridin-4-amine]: the IC50 at PqsR is at most 50 nM; in series [3], 251 to 1000 nM. Also, the half-life at 1 μM in series [1] is over 1 h. Also, in series [2], the solubility at 5 min is over 25 µM.
